# Experiment: log P value (octanol/water partition coefficient)
# Settings: not given
row,Compound,logP
1,"CSc1ccc(C(=O)C(C)(C)N2CCOCC2)cc1 [IRGACURE 907, 2-methyl-1-(4-methylthiophenyl)-2-morpholinopropan-1-one]",2.09

# Same assay, conditions: octanol/water
row,Compound,logP
1,"C=CC(=O)OCCCCCCCCCCOC(=O)C=C [1,10-decanediol diacrylate]",4.1

# Same assay, conditions: octanol/water partition coefficient
row,Compound,log P
1,"CCc1cc(CC)c2sc3ccccc3c(=O)c2c1 [KAYACURE DETX-S, diethylthioxanthone]",5.12
2,bisphenol A di(meth)acrylate,5.46
3,bisphenol A-propylene oxide (2 mole) adduct di(meth)acrylate,6.10
4,bisphenol A-propylene oxide (4 mole) adduct di(meth)acrylate,6.43
5,neopentyl glycol hydroxypivalate-(meth)acrylic acid adduct,3.35
6,p-phenylphenol (meth)acrylate,3.98
7,tricyclodecanedimethanol diacrylate [LIGHT ACRYLATE DCP-A],3.05

# From patent publication US20160033699A1, “POLARIZING PLATE” (NITTO DENKO CORPORATION, priority 2014, published 2016)
